Counter-ions that a name gives are not always drawn.
Experiments:
μ-receptor = μ-receptor (Homo sapiens (Human), UniProt P35372); assay: Alternate receptor binding assay, competitive displacement of [3H]DAMGO; conditions: alternate assay: 0.8 nM [3H]DAMGO, 5 mM MgCl2, CHO cell membrane protein, 120 min
human μ opioid receptor = human μ opioid receptor (Homo sapiens (Human), UniProt P35372); assay: Alternate functional activity ([35S]GTPγS binding) assay, SPA beads; assay type: biochemical; conditions: alternate assay: [35S]GTPγS 0.020 nM, CHO cell membranes with WGA PVT SPA beads
Male Sprague-Dawley rats [1] = assay: animal or person; assay type: in vivo, rat; conditions: sc; minimum dose at which maximal reversal of hind paw weight bearing (50±0.5%) was achieved; subcutaneous administration; rat; read-out: MEMD SC CFA
Male Sprague-Dawley rats [2] = conditions: maximum pCO2 within 2 hours of administration, subcutaneous, rat

SMILES | Ki (μ-receptor) [µM] | EC50 (human μ opioid receptor) [µM] | Ki (μ-receptor; hydrochloride) [µM] | minimal effective dose (Male Sprague-Dawley rats [1]) [mg/kg] | <60 mmHg @ 10X CFA MEMD (Male Sprague-Dawley rats [2]; dose 10× CFA MEMD) | <60 mmHg @ 100X CFA MEMD (Male Sprague-Dawley rats [2]; dose 100× CFA MEMD)
COC1(c2cccc(C(N)=O)c2)C2CCCC1CN(Cc1cnc(C)[nH]1)C2 [Compound 149, 3-((1R,5S,9r)-9-methoxy-34(2-methyl-1H-imidazol-4-yl)methyl)-3-azabicyclo[3.3.1]nonan-9-yl)benzamide hydrochloride] | < 0.001 | < 0.01 |  |  |  | 
COC1(c2cccc(C(N)=O)c2)C2CCCC1CN(C1CC3CCC(C1)O3)C2 (stereo not drawn) [Compound 203] | 0.001 to 0.005 | > 0.075 |  |  |  | 
COC1(c2cccc(C(N)=O)c2)C2CCCC1CN([C@@H](C)c1cnc[nH]1)C2 (stereo partly drawn) [Compound 19, 3-((1R,5S,9S)-3-((S)-1-(1H-imidazol-5-yl)ethyl)-9-methoxy-3-azabicyclo[3.3.1]nonan-9-yl)benzamide hydrochloride] | < 0.001 | < 0.01 |  |  |  | 
COC1(c2ccnc(C(N)=O)c2)C2CCCC1CN(C1CC3CCC(C1)O3)C2 (stereo not drawn) [Compound 202] | > 0.005 | > 0.075 |  |  |  | 
COC1(c2ccnc(C(N)=O)c2)C2CCCC1CN(C1CC3CCC(C1)O3)C2 [Compound 12, 4-((1R,5S,9R)-3-((1R,3s,5S)-8-oxabicyclo[3.2.1]octan-3-yl)-9-methoxy-3-azabicyclo[3.3.1]nonan-9-yl)picolinamide hydrochloride] |  | 0.01 to 0.075 | < 0.001 |  |  | 
CCOC1(c2ccc(F)c(C(N)=O)c2)C2CCCC1CNC2 (stereo not drawn) [Compound 183] | > 0.005 | > 0.075 |  |  |  | 
COC1(c2cccc(C(N)=O)c2)C2CCCC1CN([C@H](C)c1cnc[nH]1)C2 (stereo partly drawn) [Compound 20, 3-((1R,5S,9R)-3-((R)-1-(1H-imidazol-5-yl)ethyl)-9-methoxy-3-azabicyclo[3.3.1]nonan-9-yl)benzamide hydrochloride] | 0.001 to 0.005 | 0.01 to 0.075 |  |  |  | 
COC1(c2cccc(C(N)=O)c2)C2CCCC1CN(C1CN(c3ccccc3)C1)C2 [Compound 151, 3-((1R,5S,9r)-9-methoxy-3-(1-phenylazetidin-3-yl)-3-azabicyclo[3.3.1]nonan-9-yl)benzamide (S)-2-hydroxysuccinate] | < 0.001 | < 0.01 |  |  |  | 
COC1(c2cccc(C(N)=O)c2)C2CCCC1CN(C1CC3CCC(C1)O3)C2 (single isomer, unassigned) [Compound 16, hydrochloride] | < 0.001 | < 0.01 |  |  |  | 
COC1(c2ccnc(C(N)=O)c2)C2CCCC1CN([C@H]1C[C@@H]3[C@H](C1)C3(F)F)C2 (stereo partly drawn) [Compound 197] | < 0.001 | < 0.01 |  |  |  | 
CCOC1(c2cccc(C(N)=O)c2)C2CCCC1CNC2.Cl [Compound 160, 3-((1R,5S,9r)-9-ethoxy-3-azabicyclo[3.3.1]nonan-9-yl)benzamide] | 0.001 to 0.005 | 0.01 to 0.075 |  | 0.1 | + (resulted in a maximum pCO2 value of less than 60 mmHg within 2 hours of administration) | + (resulted in a maximum pCO2 value of less than 60 mmHg within 2 hours of administration)
COC1(c2cccc(C(N)=O)c2)C2CCCC1CN([C@H]1C[C@@H]3[C@H](C1)C3(F)F)C2 (stereo partly drawn) [Compound 200] | < 0.001 | < 0.01 |  |  |  | 
CCOC1(c2cccc(C(N)=O)c2F)C2CCCC1CNC2 (stereo not drawn) [Compound 180] | > 0.005 | > 0.075 |  |  |  | 
COC1(c2cccc(C(N)=O)c2)C2CCCC1CN(C1CCC(F)(F)CC1)C2 (stereo not drawn) [Compound 196] | < 0.001 | 0.01 to 0.075 |  |  |  | 
CCOC1(c2cc(C(N)=O)ccc2Cl)C2CCCC1CNC2 (stereo not drawn) [Compound 188] | > 0.005 | > 0.075 |  |  |  | 
